{"source": "patent US20060014729A1", "about": "“Compounds and their preparation for the treatment of Alzheimer's disease by inhibiting beta-amyloid peptide production” (priority 2004, published 2006)", "key": {"Aβ42": {"tested_on": "Aβ42", "conditions": "cited from earlier work"}, "secreted Aβ40 and Aβ42": {"tested_on": "secreted Aβ40 and Aβ42", "assay": "Aβ ELISA in CHO-APP cells treated with compounds", "type": "cell-based, hamster (CHO) cells expressing human APP", "conditions": "50 μg/ml, 6 and 24 hours, normalized to full-length APP and vehicle-treated cells", "protocol": "CHO cells stably transfected with human APP751 (CHO-APP cells) were treated with compounds as described above. The compounds were used at 50 μg/ml for 6 and 24 hours. Levels of secreted Aβ40 and Aβ42 were determined using a commercial Aβ ELISA kit (Biosource) and normalized to cell-associated full-length APP. The relative levels of Aβ40 (white bar) and Aβ42 (black bar) were normalized to values obtained from vehicle-treated cells and are shown as % to control. […] (D10=20(S), 24(R)-epoxydammarane-3β,25-diol; D2=Dammar-24-ene-3β,20(S)-diol; D3=reduction mixture of dammar resin by NaBH4; D5=Dammar resin mixture; D6=dipterocarpol; D7=t-butylhydroperoxide-oxidized products of D3. D8=3-acetyl Dammar-24-ene-3A, 20(S)-diol; D9=3-acetyl 20(S),24(R)-epoxydammarane-3β,25-diol; D10=20(S),24(R)-epoxydammarane-3×, 25-diol; D11=Dammar-24-ene-3×, 20(S)-diol; D12=tetraacetyl 20-hydroxydammar-24-ene-3-yl-glucopyranoside; D13=20-hydroxydammar-24-ene-3-yl-glucopyranoside; D15=20(S), 24(R)-epoxydammarane-3-oxo, 25-ol."}, "γ-secretase complex": {"tested_on": "γ-secretase complex", "conditions": "partially purified γ-secretase complex; cited from earlier work"}}, "data": [{"molecule": "CC(C)=CCC[C@](C)(O)[C@H]1CC[C@]2(C)[C@@H]1[C@H](O)C[C@@H]1[C@@]3(C)CC[C@H](O[C@@H]4O[C@H](CO)[C@@H](O)[C@H](O)[C@H]4O[C@@H]4O[C@H](CO)[C@@H](O)[C@H](O)[C@H]4O)C(C)(C)[C@@H]3CC[C@]12C", "note": "[(20S)Rg3]", "values": [{"measurement": "production of Aβ42 in mammalian cells", "setting": "Aβ42; mammalian cells", "result": "lower the production of Aβ42 in mammalian cells"}]}, {"molecule": "CC(C)(O)[C@H]1CC[C@@](C)([C@H]2CC[C@]3(C)[C@@H]2CC[C@@H]2[C@@]4(C)CC[C@H](O)C(C)(C)[C@@H]4CC[C@]23C)O1", "note": "[Compound D1, 20(S), 24(R)-epoxydammarane-3β, 25-diol]", "values": [{"measurement": "selective potentiation of Aβ42 production", "setting": "secreted Aβ40 and Aβ42", "result": "selectively potentiated Aβ42 production"}]}, {"molecule": "CC(C)=CCCC(C)(O)C1CC[C@]2(C)C1CCC1[C@@]3(C)CC[C@H](O)C(C)(C)C3CC[C@]12C", "note": "(stereo partly drawn) [Compound D2, Dammar-24-ene-3β,20(S)-diol]", "values": [{"measurement": "selective potentiation of Aβ42 production", "setting": "secreted Aβ40 and Aβ42", "result": "selectively potentiated Aβ42 production"}]}, {"molecule": "CC(C)=CCC[C@](C)(O)[C@H]1CC[C@]2(C)[C@@H]1CC[C@@H]1[C@@]3(C)CCC(=O)C(C)(C)[C@@H]3CC[C@]12C", "note": "[Compound D6, dipterocarpol]", "values": [{"measurement": "Aβ-lowering activity (levels of secreted Aβ40 and Aβ42, % to control)", "setting": "secreted Aβ40 and Aβ42", "result": "exhibited Aβ-lowering activities"}]}, {"molecule": "CC(=O)O[C@H]1CC[C@]2(C)[C@H]3CC[C@@H]4[C@@H]([C@]5(C)CC[C@H](C(C)(C)O)O5)CC[C@@]4(C)[C@]3(C)CC[C@H]2C1(C)C", "note": "[Compound D9, 3-acetyl 20(S),24(R)-epoxydammarane-3β,25-diol]", "values": [{"measurement": "selective potentiation of Aβ42 production", "setting": "secreted Aβ40 and Aβ42", "result": "selectively potentiated Aβ42 production"}]}, {"molecule": "CC(C)(O)[C@H]1CC[C@@](C)([C@H]2CC[C@]3(C)[C@@H]2CC[C@@H]2[C@@]4(C)CC[C@@H](O)C(C)(C)[C@@H]4CC[C@]23C)O1", "note": "[Compound D10, 20(S),24(R)-epoxydammarane-3 cc, 25-diol]", "values": [{"measurement": "Aβ-lowering activity (levels of secreted Aβ40 and Aβ42, % to control)", "setting": "secreted Aβ40 and Aβ42", "result": "exhibited Aβ-lowering activities"}]}, {"molecule": "CC(C)=CCCC(C)(O)C1CC[C@]2(C)C1CCC1[C@@]3(C)CC[C@@H](O)C(C)(C)C3CC[C@]12C", "note": "(stereo partly drawn) [Compound D11, Dammar-24-ene-3α,20(S)-diol]", "values": [{"measurement": "Aβ-lowering activity (levels of secreted Aβ40 and Aβ42, % to control)", "setting": "secreted Aβ40 and Aβ42", "result": "exhibited Aβ-lowering activities"}]}, {"molecule": "CC(C)(O)C1CCC(C)(C2CCC3(C)C2CCC2C4(C)CCC(=O)C(C)(C)C4CCC23C)O1", "note": "[Compound D15, 20(S), 24(R)-epoxydammarane-3-oxo, 25-ol]", "values": [{"measurement": "Aβ-lowering activity (levels of secreted Aβ40 and Aβ42, % to control)", "setting": "secreted Aβ40 and Aβ42", "result": "exhibited Aβ-lowering activities"}]}, {"molecule": "CC(C)=CCC[C@](C)(O[C@@H]1O[C@H](CO)[C@@H](O)[C@H](O)[C@H]1O)[C@H]1CC[C@]2(C)[C@@H]1[C@H](O)C[C@@H]1[C@@]3(C)CC[C@H](O)C(C)(C)[C@@H]3[C@@H](O[C@@H]3O[C@H](CO)[C@@H](O)[C@H](O)[C@H]3O)C[C@]12C", "note": "[Rg1]", "values": [{"measurement": "amyloid-reducing activity in vitro", "setting": "Aβ42; in vitro", "result": "no amyloid-reducing activity in vitro"}]}, {"molecule": "CC(C)=CC/C=C(\\C)[C@H]1CC[C@]2(C)[C@@H]1[C@H](O)C[C@@H]1[C@@]3(C)CC[C@H](O[C@@H]4O[C@H](CO)[C@@H](O)[C@H](O)[C@H]4O[C@@H]4O[C@H](CO)[C@@H](O)[C@H](O)[C@H]4O)C(C)(C)[C@@H]3CC[C@]12C", "note": "[Rg5]", "values": [{"measurement": "production of Aβ42 in mammalian cells", "setting": "Aβ42; mammalian cells", "result": "lower the production of Aβ42 in mammalian cells"}]}, {"molecule": "C=C(CCC=C(C)C)[C@H]1CC[C@]2(C)[C@@H]1[C@H](O)C[C@@H]1[C@@]3(C)CC[C@H](O[C@@H]4O[C@H](CO)[C@@H](O)[C@H](O)[C@H]4O[C@@H]4O[C@H](CO)[C@@H](O)[C@H](O)[C@H]4O)C(C)(C)[C@@H]3CC[C@]12C", "note": "[Rk1]", "values": [{"measurement": "Aβ42 production in cell-free assay", "setting": "γ-secretase complex", "result": "inhibit the Aβ42 production"}, {"measurement": "production of Aβ42 in mammalian cells", "setting": "Aβ42; mammalian cells", "result": "lower the production of Aβ42 in mammalian cells"}, {"measurement": "relative effectiveness in reducing Aβ42 levels", "setting": "Aβ42; mammalian cells", "result": "most effective in reducing Aβ42 levels"}]}, {"molecule": "tetraacetyl 20-hydroxydammar-24-ene-3-yl-glucopyranoside [Compound D12]", "values": [{"measurement": "Aβ-lowering activity (levels of secreted Aβ40 and Aβ42, % to control)", "setting": "secreted Aβ40 and Aβ42", "result": "exhibited Aβ-lowering activities"}]}]}
